Measured values taken from EP1127071B1, “COMPOUNDS WITH GROWTH HORMONE RELEASING PROPERTIES” (Novo Nordisk A/S, priority 1998, dated 2000).

Test: Pharmacokinetics after intravenous and oral administration in fasted Beagle dogs
Assay type: in vivo
Conditions: compared with the compound of example 408 of WO 9723508
Experimental: The pharmakokinetic data were obtained by the following procedure:
The pharmacokinetics of the test compounds were Investigated in fasted Beagle dogs.
Intravenous and oral administration of the test compound, in 5% glucose solution, was separated by a one-week washout.
Blood samples were collected immediately before drug administration (time zero) and than 0.08, 0.25, 0.50, 0.75, 1.0, 1.5. 2.0, 3.0, 4.0, 5.0, and 6.0 hours after administration.
The plasma samples were stored frozen (<-18°C) pending analysis.
An HPLC method with solid phase extraction and W detection was used for the quantification of the compound in plasma.
The pharmacokinetic parameters for the compounds were calculated by non-compartmental methods using the PC based pharmacokinetic software WinNonlin, version 1.1 (Scientific Consulting Inc., Apex, NC, USA).

- plasma half-life (administration in 5% glucose solution): shorter plasma half-life
- oral bioavailability (oral vs intravenous administration in 5% glucose solution): better oral bioavailability
Structure (SMILES): CN(CCc1ccccn1)C(=O)[C@@H](Cc1ccccc1)N(C)C(=O)[C@@H](Cc1ccc2ccccc2c1)N(C)C(=O)/C=C/CC(C)(C)N [Example 1, (2E)-5-Amino-5-methylhex-2-enoic acid N-methyl-N-[(1R)-1-(N-methyl-N-{(1R)-1-[N-methyl-N-(2-(2-pyridinyl)ethyl)carbamoyl]-2-phenylethyl}carbamoyl)-2-(2-naphthyl)ethyl]amide]
